Results from patent US9745583B2, “Liposome for topical administration and application thereof” (DELTA-FLY PHARMA, INC., priority 2013, dated 2017).

Experiments:
TS gene = TS gene expression in collected tumor cells, quantitative RT-PCR (Example 9); assay type: in vivo, human; details: tumor cells collected 21 days after implantation; compared with control; GAPDH internal standard
Description: Mice of the groups subjected to the treatment in the same manner as in Example 8 were subjected to evaluation via IVIS 21 days after the implantation of the MSTO-211H-Luc cells, mice were sacrificed, tumor cells were collected from the thoracic cavity, and the inhibition of TS gene expression in the collected tumor cells was evaluated via quantitative RT-PCR.
RNA was extracted from tumor cells using the RNaqueous-micro kit (Ambion, Austin, Tex., U.S.A.) in accordance with the method recommended by the manufacturer. Reverse transcription of RNA into cDNA was carried out with the addition of Oligo (dT)20, dNTP, RNase inhibitor, and ReverTra Ace (Toyobo, Osaka, Japan) to RNA. Real-time PCR was carried out using the StepOnePlus real-time PCR system (Applied Biosystems, CA, U.S.A.), the reversely-transcribed cDNA as the template, and FastStart TaqMan Probe Master (ROX) and Universal ProbeLibrary (Roche Diagnostics GmbH, Manheim, Germany) as reagents, in accordance with the method recommended by the manufacturer. GAPDH was used as the internal standard.

MSTO-211H-Luc cells [1] = experiment: Tumor growth inhibition by intrathoracic TS-shRNA lipoplex in orthotopic mouse models of malignant pleural mesothelioma (Example 8); assay type: in vivo; details: compared with control; IVIS 21 days after implantation; lipoplex 20 μg shRNA intrathoracic x6; PMX 25 mg/kg i.p. x10
Description: Orthotopic implantation mouse models of malignant pleural mesothelioma using the MSTO-211H-Luc cells were prepared by the method described in Example 3, and mice in which implanted cells had been sufficiently fixed 7 days after implantation were subjected to in vivo experiment.
The TS-shRNA lipoplex or NS-shRNA lipoplex was directly administered into the thoracic cavity of a mouse carrying MSTO-211H-Luc cells every other day from 7 days to 17 days after the tumor implantation, and administration was carried out 6 times in total. A dose was 20 μg of shRNA/100 μl. […]
As described in Example 5, carcinostatic activity (i.e., cell growth inhibitory activity) was evaluated by implanting MSTO-211H-Luc cells, administering 100 μl of a D-luciferin potassium salt solution (7.5 mg/ml) intraperitoneally under anesthesia with isoflurane 21 days after implantation, and evaluating the bioluminescence levels depending on activity of the MSTO-211H-Luc cells that had grown in the thoracic cavity using IVIS (Xenogen, Alameda, Calif., U.S.A.).

MSTO-211H-Luc cells [2] = experiment: Tumor growth inhibition by intrathoracic TS-lipoplex and TS-preplex in orthotopic models (Example 11); assay type: in vivo, mouse; details: IVIS 18 days after implantation; 20 μg shRNA intrathoracic x5; PMX 25 mg/kg i.p. x10
Description: Orthotopic implantation models of malignant pleural mesothelioma using the MSTO-211H-Luc cells were prepared by the method described in Example 4, and the mice 4 days after implantation were subjected to the in vivo experiment.
The TS-lipoplex or TS-preplex was administered directly into the thoracic cavity 4, 7, 10, 13, and 16 days after the tumor implantation, so that 20 μg (50 μl) of shRNA would be administered.
When an existing chemotherapeutic agent (Alimta; pemetrexed sodium hydrate (PMX), Eli Lilly) was used in combination, a dose of 25 mg/kg was intraperitoneally administered every day from 4 days to 8 days after the tumor implantation, the same amount of the agent was intraperitoneally administered after an interval of 2 days every day from 11 days to 15 days after the tumor implantation, and administration was carried out 10 times in total.
Two days after the final administration of the TS-lipoplex or TS-preplex (i.e., 18 days after the tumor implantation), 100 μl of a D-luciferin potassium salt solution (7.5 mg/ml) was administered intraperitoneally under anesthesia with isoflurane, and the bioluminescence levels depending on luciferase activity in the MSTO-211H-Luc cells that had grown in the thoracic cavity were evaluated using IVIS (Xenogen, Alameda, Calif., U.S.A.).

[3] = system: human malignant pleural mesothelioma cells (MSTO-211H); experiment: MTT assay, cell growth after shRNA transfection with or without PMX; assay type: cell-based; details: shRNA 5 or 10 nM with Lf RNAi MAX; in the presence of PMX 0.01 μg/ml; 0-96 hours
Description: This experiment was carried out on a 96-well plate scale. Transfection was carried out using Lipofectamine® RNAi MAX (hereafter referred to as “Lf RNAi MAX”), which is a cationic liposome, in accordance with the manufacturer's instructions.
shRNA (300 pmol of TS-shRNA or NS-shRNA) and 15 μl of Lf RNAi MAX were separately diluted with OptiMEM to prepare solutions (500 n1 each), the resulting solutions were mixed with each other, and the mixture was allowed to stand at room temperature for 10 to 20 minutes to form a complex (i.e., a lipoplex). A suspension of human malignant pleural mesothelioma cells (MSTO-211H) (2,000 cells/100 n1) was added to wells, 50 μl of lipoplex was added thereto 24 hours thereafter, and the final total volume was adjusted to 150 μl (the final shRNA concentration in the wells was adjusted to 5 nM or 10 nM). The medium was removed 24 hours after the initiation of transfection, and 200 μl of a fresh medium containing or not containing an existing cancer chemotherapeutic agent (“Alimta,” pemetrexed sodium hydrate, PMX, Eli Lilly) at 0.01 μg/ml was added thereto. The medium was removed 0, 24, 48, 72, and 96 hours after the addition of the fresh medium. […]
After the completion of incubation, acidic isopropanol (150 μl) was added to each well. […] Absorbance was determined at a wavelength of 570 nm using a plate reader. […]

Compound | TS gene inhibitory effects (TS mRNA) (TS gene) | tumor growth inhibitory effects (MSTO-211H-Luc cells [1]) | tumor growth inhibitory effects (MSTO-211H-Luc cells [2]) | growth of MSTO-211H cells (cell growth rate, MTT) [3]
Nc1nc2[nH]cc(CCc3ccc(C(=O)N[C@@H](CCC(=O)O)C(=O)O)cc3)c2c(=O)[nH]1 [PMX, pemetrexed sodium hydrate] | about 25% | about 50% | insignificant | –
TS-shRNA: TS-targeting shRNA, SEQ ID NO: 8 (GUAACACCAUCGAUCAUGAUAGUGCUCCUGGUUGUCAUGAUCGAUGGUGUUACUU; siRNA; shRNA hairpin, further chemistry not given here) | – | – | – | inhibited the growth of MSTO-211H cells to a significant extent
